How the values were obtained:
serotonin 2 receptor = molecular target: T1, serotonin 2 receptor (Mus musculus, UniProt P35363); assay: Mouse head twitch behavior test (tryptamine-induced); format: in vivo; conditions: tryptamine 30 mg/kg i.v.; test compound 15 min before; FIG. 7
T1 construct: known to induce mouse head twitch behavior through a serotonin 2 receptor; from tissue; host or cells: living mouse (in vivo behaviour test)
Protocol: The serotonin 2 receptor antagonist activity of test compounds was determined by a mouse head twitch behavior test. Tryptamine is a serotonin 2 receptor agonist and is known to induce mouse head twitch behavior through a serotonin 2 receptor. Accordingly, the serotonin 2 receptor antagonist activity of the test compounds can be evaluated based on the head twitch behavior by tryptamine. Tryptamine was administered intravenously to mice at 30 mg/kg, and the number of times of appearance of the head twitch within one min after the start of administration counted. The test compounds (compounds 1 and 4) were administered 15 min before the intravenous administration of tryptamine.
[^3H]8-hydroxy-dipropylaminotetralin is known to be used for the measurement of binding of test compounds to serotonin 1A receptors (European Journal of Pharmacology, 90, p. 151-153, 1983.). Further, [^3H]ketanserin is known to be used for the measurement of binding of test compounds to serotonin 2A receptors (Brian Dean and Wendy Hayes, Schizophrenia Research, 21, p. 133-139, 1996.). Furthermore, the test on mouse head twitch behavior with tryptamine is known to be used for the measurement of the serotonin 2 receptor antagonist activity of test compounds (Yamada J., et al., European Journal of Pharmacology, 140, p. 323-330, 1987; and Yamada J., et al., Neuropharmacology, 26, p. 49-53, 1987.).

rat motor neuron cells [1] = assay: Inhibition of 5HT toxicity in rat motor neuron primary pure culture system; format: cell-based; conditions: survival three days after seeding; for Inhibition of 5HT toxicity (survival rate): antagonist added 5 to 10 min before 5HT, FIG. 2, FIG. 3
Protocol: (§1) Based on the results of cell measurement, the rat motor neuron cells were diluted with the culture solution to 1.1 to 1.2×10^4 cells/mL. Greiner 4-well dishes previously coated with poly-L-ornithine/laminin were seeded with the cell suspension at 90 μL/well with a 1 mL Pipetman. […] The initial viable cell count was measured three hr after the addition of serotonin (5HT). The viable cell count was again measured three days after the cell seeding, and the survival rate was calculated based on the initial viable cell count. The cell count measurement was carried out under a phase-contrast microscope using marks previously applied on the backside of the Greiner 4-well dish as a reference.
as §1

rat motor neuron cells [2] = assay: Evaluation of toxicity of 5HT in rat motor neuron primary pure culture system; format: cell-based
Protocol: Rat motor neuron cells were subjected to pure culture in the presence of 30 ng/mL BDNF for three days, and toxicity of serotonin (5HT) was evaluated.
The rat motor neuron primary pure culture was carried out by a method which is modification of Nishijima et al. method (Nishijima C. et al., J Neurochem 76, 383-390(2001)) by incorporating a purification method and the like in the Nishijima et al. method.
A necessary number of Greiner-4-well dishes (10 mm i.d. wells) (Greiner bio-one) were provided, and 0.15 M sodium borate buffer (pH 8.3) containing 0.5 mg/mL poly-L-ornithine was added at 100 μL/well followed by standing at 4° C. overnight. Ornithine was removed by suction, the residue was washed three times with PBS(−), and L-15 (CO2) containing 10 μg/mL laminin (Gibco-BRL) was spread at 50 μL/well. […]
Wistar pregnant rats (fifteen days pregnant) (Tokyo Laboratory Animals Science Co., Ltd.) were etherized and were then sacrificed by cervical dislocation. […] One hr after the start of the culture, serotonin (serotonin creatinine sulfate complex, Sigma) or glutamate (Sigma) was added thereto, and, three hr after that, the initial viable cell count was measured. The viable cell count was again measured three days after the cell seeding, and the survival rate was calculated based on the initial viable cell count. […]

5-HT1A receptor [3] = molecular target: T2, 5-HT1A receptor (Sus scrofa, UniProt A0A4X1UTF5); conditions: receptor in G protein bound state (MgCl2 10 mM), 0.5 nM [3H]MPPF, swine hippocampus membrane; WO 2005/108389; read-out: High affinity; cited from earlier work
T2 construct: to a swine hippocampus membrane fraction; from tissue; host or cells: swine hippocampus
T2 sequence (A0A4X1UTF5 1-422): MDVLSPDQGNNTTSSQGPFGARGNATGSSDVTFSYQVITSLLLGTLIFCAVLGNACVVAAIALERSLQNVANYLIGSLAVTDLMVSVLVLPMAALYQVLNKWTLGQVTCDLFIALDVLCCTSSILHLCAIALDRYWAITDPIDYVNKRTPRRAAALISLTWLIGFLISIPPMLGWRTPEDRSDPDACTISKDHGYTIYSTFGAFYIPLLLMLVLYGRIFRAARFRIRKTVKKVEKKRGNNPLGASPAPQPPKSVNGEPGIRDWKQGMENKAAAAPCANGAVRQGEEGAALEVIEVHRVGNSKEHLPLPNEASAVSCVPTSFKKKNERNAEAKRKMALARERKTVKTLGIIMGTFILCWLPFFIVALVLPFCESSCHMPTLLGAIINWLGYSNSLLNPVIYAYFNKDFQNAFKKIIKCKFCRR

5-HT1A receptor [4] = molecular target: T2, 5-HT1A receptor; assay: Test on affinity for serotonin 1A receptor ([3H]MPPF, hippocampus membrane fraction); format: binding, swine; conditions: low affinity IC50 divided by high affinity IC50; not more than 1 = no intrinsic activity, not less than 2 = intrinsic activity
Protocol: The affinity of test compounds for the 5-HT1A receptor was determined by an experiment for inhibition of a test compound against the binding of [^3H]-4-(2′-Methoxy)phenyl-1-[2′-(N-2″-pyridinyl)-p-fluorobenzamido]ethyl-piperazine (MPPF), selectively bound to the 5-HT1A receptor, to a swine hippocampus membrane fraction. The 5-HT1A receptor, which is a G protein binding receptor, is brought to a G protein bound state upon the addition of MgCl2, and is brought to a G protein nonbound state upon the addition of guanylylimidodiphosphate (Gpp(NH)p). It is generally known that a G protein receptor agonist has stronger affinity for the G protein bound receptor depending upon the level of the intrinsic activity. Accordingly, the affinity of a test compound for the receptor in a G protein nonbound state and the affinity of the test compound for the receptor in a G protein bound state were determined and compared with each other to estimate the level of the intrinsic activity of the test compound.
The greater this value, the higher the intrinsic activity.
Swine hippocampus was homogenized in an ice-cooled 50 mM Tris hydrochloride buffer (pH 7.4; hereinafter referred to as buffer A). The suspension was centrifuged at 40,000×g for 15 min. The resultant sediment was suspended in buffer A, and the suspension was then centrifuged at 40,000×g for 15 min. The same procedure was further repeated twice or three times. The finally obtained sediment was suspended in buffer A in an amount of about ten times larger than the wet weight of the swine hippocampus to prepare a membrane fraction which was then stored at −80° C. until use.
A mixture (0.5 mL) for incubation, containing an appropriate amount of the membrane fraction, a test compound in a desired concentration, MgCl2 (final concentration: 10 mM) or Gpp(NH)p (final concentration: 1 mM), [^3H]MPPF (final concentration: 0.5 nM), dimethyl sulfoxide (final concentration: 1% (v/v)), and 50 mM Tris hydrochloride buffer (pH 7.4), was provided. Upon the addition of the membrane fraction, a reaction started, and the mixture was incubated at 37° C. for 30 min. After the incubation, the incubated mixture was suction filtered through a glass filter with a cell harvester. After washing the glass filter with ice-cooled buffer A, the radioactivity bound to the receptor was measured with a liquid scintillation counter. The binding detected in the presence of 10 μM WAY-100,635. was regarded as nonspecific binding.

T1 sequence (P35363 whole entry): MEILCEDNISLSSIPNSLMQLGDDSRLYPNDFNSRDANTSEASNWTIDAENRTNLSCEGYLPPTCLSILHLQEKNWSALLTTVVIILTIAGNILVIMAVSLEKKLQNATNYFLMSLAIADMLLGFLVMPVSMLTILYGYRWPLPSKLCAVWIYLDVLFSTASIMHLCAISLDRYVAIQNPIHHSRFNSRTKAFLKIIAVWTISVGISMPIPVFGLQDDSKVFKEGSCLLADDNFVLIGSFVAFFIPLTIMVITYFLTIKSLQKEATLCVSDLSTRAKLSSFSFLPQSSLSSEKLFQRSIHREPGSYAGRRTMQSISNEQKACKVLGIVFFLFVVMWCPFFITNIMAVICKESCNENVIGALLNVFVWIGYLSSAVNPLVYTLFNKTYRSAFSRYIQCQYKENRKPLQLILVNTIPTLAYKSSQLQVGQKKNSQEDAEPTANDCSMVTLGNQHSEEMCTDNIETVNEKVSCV

Compound: CNC(=O)Cc1ccc2ccn(C3CCN(CCc4ccccc4F)CC3)c2c1 [Compound 1, N-methyl-{1-[1-(2-fluorophenethyl)piperidin-4-yl]-1H-indol-6-yl}acetamide]
- Serotonin 2A receptor antagonist activity (head twitch by tryptamine) (serotonin 2 receptor): excellent serotonin 2A receptor antagonist activity
- Concentration at which 5HT excitotoxicity is inhibited (rat motor neuron cells [1]; compound added 5 to 10 min before 5HT, FIG. 5, FIG. 6): not less than 0.1 nM

Compound: NCCOB(c1ccccc1)c1ccccc1 [Compound 2-APB]
- Inhibition of 5HT toxicity (survival rate) (rat motor neuron cells [1]): inhibition of 5HT excitotoxicity

Compound: NCCc1c[nH]c2ccc(O)cc12 [Compound 5HT, serotonin]
- 5HT toxicity compared with glutamate toxicity (rat motor neuron cells [2]; serum-free culture solution, FIG. 1B): comparable with glutamate toxicity
- Toxicity of 5HT (survival rate of motor neuron cells) (rat motor neuron cells [2]; three days culture, 30 ng/mL BDNF, FIG. 1A): showed toxicity in a concentration-dependent manner

Compound: CNC(=O)c1ccc2ccn(C3CCN(CCc4c(OC)ccc5c4OC(C)(C)CC5=O)CC3)c2c1 [Compound 9, 1-{1-[2-(7-methoxy-2,2-dimethyl-4-oxochroman-8-yl)ethyl]piperidin-4-yl}-N-methyl-1H-indole-6-carboxamide]
- IC50 (5-HT1A receptor [3]): 0.2 nM
- L/H ratio (5-HT1A receptor [4]): 0.8

Compound: COc1ccc2c(c1CCN1CCC(n3ccc4ccc(C(N)=O)cc43)CC1)OC(C)(C)CC2=O [Compound 10, 1-{1-[2-(7-methoxy-2,2-dimethyl-4-oxochroman-8-yl)ethyl]piperidin-4-yl}-1H-indole-6-carboxamide]
- IC50 (5-HT1A receptor [3]): 0.13 nM
- L/H ratio (5-HT1A receptor [4]): 0.8

Compound: COc1cc2oc(C)nc2cc1CCN1CCC(n2ccc3ccc(C(N)=O)cc32)CC1 [Compound 11, 1-{1-[2-(6-methoxy-2-methylbenzoxazol-5-yl)ethyl]piperidin-4-yl}-1H-indole-6-carboxamide]
- L/H ratio (5-HT1A receptor [4]): 0.9

Compound: COc1ccc2nc(C)oc2c1CCN1CCC(n2ccc3ccc(C(N)=O)cc32)CC1 [Compound 12, 1-{1-[2-(6-methoxy-2-methylbenzoxazol-7-yl)ethyl]piperidin-4-yl}-1H-indole-6-carboxamide]
- L/H ratio (5-HT1A receptor [4]): 0.7

Compound: COc1cc2onc(C)c2cc1CCN1CCC(n2ccc3ccc(C(N)=O)cc32)CC1 [Compound 13, 1-{1-[2-(6-methoxy-3-methylbenzo[d]isoxazol-5-yl)ethyl]piperidin-4-yl}-1H-indole-6-carboxamide]
- L/H ratio (5-HT1A receptor [4]): 1.3

Compound: COc1ccc2c(C)noc2c1CCN1CCC(n2ccc3ccc(C(N)=O)cc32)CC1 [Compound 14, 1-{1-[2-(6-methoxy-3-methylbenzo[d]isoxazol-7-yl)ethyl]piperidin-4-yl}-1H-indole-6-carboxamide]
- L/H ratio (5-HT1A receptor [4]): 1.6

Compound: COc1cc2c(cc1CCN1CCC(n3ccc4ccc(C(N)=O)cc43)CC1)OCCO2 [Compound 15, 1-{1-[2-(7-methoxy-2,3-dihydrobenzo[1,4]dioxin-6-yl)ethyl]piperidin-4-yl}-1H-indole-6-carboxamide]
- L/H ratio (5-HT1A receptor [4]): 0.9

Compound: OC(c1ccccc1)C1CCN(CCc2ccccc2)CC1 (stereo not shown) [MDL-11939]
- Inhibition of 5HT toxicity (survival rate) (rat motor neuron cells [1]): inhibited

Compound: COc1ccccc1N1CCN(CCCCN2C(=O)c3ccccc3C2=O)CC1 [NAN-190]
- Inhibition of 5HT toxicity (survival rate) (rat motor neuron cells [1]): inhibited

From patent publication US7541371B2, “Method for treating a motor neuron disease” (Eisai R&D Management Co., Ltd., priority 2006, dated 2009)
